The test relates to Escherichia coli strain ATCC25922. The experiment in a line: standard microdilution assay to determine minimum inhibitory concentrations (MICs). Format: cell-based. The conditions noted are these: for E. coli ATCC25922 MIC: Escherichia coli strain ATCC25922, microdilution; for MIC: Escherichia coli, ATCC25922, Escherichia coli strain ATCC25922, microdilution, read-out: E. coli ATCC25922 MIC. How it is done:
Minimum inhibitory concentrations (MICs) are determined by the microdilution method, typically in a final volume of 100 microliters, according to protocols outlined by The Clinical and Laboratory Standards Institute [CLSI; formerly the National Committee for Clinical Laboratory Standards (NCCLS)]. See CLSI: Methods for dilution antimicrobial susceptibility tests for bacteria that grow aerobically; approved standard-fifth edition. Wayne, Pa.: NCCLS; 2000. The assays can be also be performed in microtiter trays according to conventional methodologies as published by the CLSI. See CLSI. Methods for Dilution Antimicrobial Susceptibility Tests for Bacteria That Grow Aerobically; Approved Standard—Seventh Edition. CLSI Document M7-A7 [ISBN 1-56238-587-9] CLSI, 940 West Valley Road, Suite 1400, Wayne Pa. 19087-1898 USA, 2006).
The compounds of the present invention were tested for antimicrobial activity. The compounds were run against Escherichia coli strain ATCC25922 using a standard microdilution assay to determine minimum inhibitory concentrations (MICs). […] A “N/A” means that data is unavailable. It will be recognized by one skilled in the art that the compounds can be assessed against other bacterial organisms and that the presentation of data for activity against Escherichia coli is illustrative and in no way is intended to limit the scope of the present invention. The compounds of the present invention can be assayed against a range of other microorganisms depending upon the performance activity desired to be gathered. Furthermore, the “+”, “−”, and “N/A” representation and the selection of a cutoff value of 16 micrograms/ml is also illustrative and in no way is intended to limit the scope of the present invention.
(Dilution methods test growth across graded concentrations, often in twofold steps.)

Molecules are shown by their SMILES. Where only a bound is given, the exact number is not on record here.

On to `N=C(N)NCCCNCc1ccc(-n2cc3cc(-c4ccc(S(=O)(=O)C[C@@H](O)CN5CCCCC5)cc4)[nH]c3nc2=O)cc1` [Compound 1171], for which the “E. coli ATCC25922 MIC” value was “+ (a “+” indicates that the compound has an MIC value of 16 micrograms/ml or less)”.

The term MIC denotes the smallest concentration in the dilution series that meets the test's criterion for growth inhibition. Turning to `C=Cc1cc2cn(-c3ccc(C(=O)NCCCNC(=N)N)cc3)c(=O)nc2[nH]1` [Compound 1112], the MIC was greater than 16 µg/mL.

With `NCCCCCN1CCN(c2cn3cc(-c4ccc(S(=O)(=O)N5CCNCC5)cc4)[nH]c3nc2=O)CC1` [Compound 900], the MIC was greater than 16 µg/mL.

As for `NCc1ccc(-n2cc3cc(-c4ccc(S(=O)(=O)N(CCCn5ccc(C(F)(F)F)n5)C5CCNCC5)cc4)[nH]c3nc2=O)cc1` [Compound 1002], the “E. coli ATCC25922 MIC” value is “− (a “−” indicates that the compound has an MIC value greater than 16 micrograms/ml)”.

For the molecule `NCCCNCc1ccc(-n2cc3cc(-c4ccncc4)[nH]c3nc2=O)cc1` [Compound 633], the MIC is greater than 16 µg/mL.

In the case of `N=C(N)NCCCNCc1ccc(-n2cc3cc(-c4ccc(S(=O)(=O)N(Cc5cc(OC(F)(F)F)ccc5F)C5CCNCC5)cc4)[nH]c3nc2=O)cc1` [Compound 767], the “E. coli ATCC25922 MIC” value is “+ (a “+” indicates that the compound has an MIC value of 16 micrograms/ml or less)”.

As to `NCCCNCc1ccc(-n2cc3cc(-c4ccc(C[C@H](N)CO)cc4)[nH]c3nc2=O)cc1` [Compound 867], the MIC was less than 16 µg/mL.

`NCc1ccc(-n2cc3cc(-c4cc(F)c(C(=O)NC5CCNCC5)c(F)c4)[nH]c3nc2=O)cc1` [Compound 258]: the MIC is less than 16 µg/mL.

As to `NCCCNCc1ccc(-n2cc3cc(-c4cc(CN5CCS(=O)(=O)CC5)cc(N5CCNCC5)c4)[nH]c3nc2=O)cc1` [Compound 914], the “E. coli ATCC25922 MIC” value is listed as “− (a “−” indicates that the compound has an MIC value greater than 16 micrograms/ml)”.

With `N=C(N)NCCCNCc1ccc(-c2cn3cc(-c4ccc(C(=O)N5CCN(c6ncccn6)CC5)cc4)[nH]c3nc2=O)cc1` [Compound 721], the MIC is greater than 16 µg/mL.

`N=C(N)NCCCNCc1ccc(-n2cc3cc(-c4cc(CCCCN)cc(S(=O)(=O)C(F)(F)F)c4)[nH]c3nc2=O)cc1` [Compound 2055a]: the “E. coli ATCC25922 MIC” value was “+ (a “+” indicates that the compound has an MIC value of 16 micrograms/ml or less)”.

Take `NCc1ccc(-n2cc3cc(-c4cccc(OCCCO)c4)[nH]c3nc2=O)cc1` [Compound 1099]: the MIC was greater than 16 µg/mL.

As to `N=C(N)CCCOc1cccc(-c2cc3cn(-c4ccc(CNCCCN)cc4)c(=O)nc3[nH]2)c1` [Compound 1216], the MIC is less than 16 µg/mL.

In the case of `N=C(N)NCCCNCc1ccc(-n2cc3cc(-c4ccc(S(=O)(=O)NC5CCNCC5)cc4)[nH]c3nc2=O)cc1` [Compound 871], the “E. coli ATCC25922 MIC” value is “+ (a “+” indicates that the compound has an MIC value of 16 micrograms/ml or less)”.

As to `CN1CCN(CCCN(C2CCNCC2)S(=O)(=O)c2ccc(-c3cc4cn(-c5ccc(CN6CC[C@@H](NC(=N)N)C6)cc5)c(=O)nc4[nH]3)cc2)CC1` [Compound 1207], the “E. coli ATCC25922 MIC” value is “− (a “−” indicates that the compound has an MIC value greater than 16 micrograms/ml)”.

For `N=C(N)NCCCN1CC=C(n2cc3cc(-c4ccc(S(=O)(=O)N(CC5COc6ccccc6O5)C5CCNCC5)cc4)[nH]c3nc2=O)CC1` (centres unmarked) [Compound 984], the “E. coli ATCC25922 MIC” value is recorded as “+ (a “+” indicates that the compound has an MIC value of 16 micrograms/ml or less)”.

Take `NCCCNCc1ccc(-n2cc3cc(C4C[C@@H](N)[C@@H](CO)O4)[nH]c3nc2=O)cc1` (some centres unmarked) [Compound 1246]: the MIC is less than 16 µg/mL.

On to `NCCCNCc1ccc(-n2cc3cc(-c4ccc(S(=O)(=O)NC5CCCNC5)cc4)[nH]c3nc2=O)cc1` (centres unmarked) [Compound 807], for which the “E. coli ATCC25922 MIC” value is on record as “+ (a “+” indicates that the compound has an MIC value of 16 micrograms/ml or less)”.

Regarding `CN1CCN(c2cccc(-c3cc4cn(-c5ccc(CNCCCNC(=N)N)cc5)c(=O)nc4[nH]3)c2)CC1` [Compound 678], the MIC was less than 16 µg/mL.

Consider `N=C(N)NCCCNCc1ccc(-n2cc3cc(CCN[C@H]4CCCNC4)[nH]c3nc2=O)cc1` [Compound 817], for which the MIC is less than 16 µg/mL.

Regarding `N=C(N)NCCCNCc1ccc(-n2cc3cc(-c4cccc(S(=O)(=O)CCCN)c4)[nH]c3nc2=O)cc1` [Compound 1460], the “E. coli ATCC25922 MIC” value is listed as “+ (a “+” indicates that the compound has an MIC value of 16 micrograms/ml or less)”.

Consider `N=C(N)NCCCNCc1ccc(-n2cc3cc(-c4cc(C(=O)Nc5ccc(F)cc5)cc(N5CCNCC5)c4)[nH]c3nc2=O)cc1` [Compound 761], for which the MIC was less than 16 µg/mL.

`N=C(N)NCCCNCc1ccc(-n2cc3cc(C4CCCN(C(=N)N)C4)[nH]c3nc2=O)cc1` (centres unmarked) [Compound 1211]: the MIC is less than 16 µg/mL.

Consider `N=C(N)NCCCNCc1ccc(-n2cc3cc(C4C[C@@H](N)[C@@H](CO)O4)[nH]c3nc2=O)cc1` (some centres unmarked) [Compound 1245], for which the MIC was less than 16 µg/mL.

Turning to `N=C(N)NCCCNCc1ccc(-c2cn3cc(-c4ccc(C(=O)NC56CC7CC(CC(C7)C5)C6)cc4)[nH]c3nc2=O)cc1` [Compound 724], the MIC is less than 16 µg/mL.

For `CN(C)CCOc1ccccc1-c1cc2cn(-c3ccc(CN)cc3)c(=O)nc2[nH]1` [Compound 1111], the MIC is greater than 16 µg/mL.

On to `N=C(N)NCCCNC(c1ccc(-n2cc3cc(-c4ccc(S(=O)(=O)NC5CCNCC5)cc4)[nH]c3nc2=O)cc1)C(F)(F)F` (centres unmarked) [Compound 1015], for which the “E. coli ATCC25922 MIC” value is listed as “+ (a “+” indicates that the compound has an MIC value of 16 micrograms/ml or less)”.

`NCCCN(CCCN)Cc1ccc(-n2cc3cc(-c4ccc(S(=O)(=O)NC5CCNCC5)cc4)[nH]c3nc2=O)cc1` [Compound 198]: the MIC is less than 16 µg/mL.

For the molecule `N=C(N)NCCCNCc1ccc(-n2cc3cc(-c4cccc(C(NCCN)C(F)(F)F)c4)[nH]c3nc2=O)cc1` (centres unmarked) [Compound 2025a], the “E. coli ATCC25922 MIC” value is given as “+ (a “+” indicates that the compound has an MIC value of 16 micrograms/ml or less)”.

Regarding `NCc1ccc(-n2cc3cc(-c4ccc(S(=O)(=O)N(CCCN5CCc6ccccc65)C5CCNCC5)cc4)[nH]c3nc2=O)cc1` [Compound 1067], the MIC is greater than 16 µg/mL.

On to `N=C(N)NCCCN1CC=C(n2cc3cc(-c4ccc(S(=O)(=O)N(Cc5ccc(Cl)c(Cl)c5)C5CCNCC5)cc4)[nH]c3nc2=O)CC1` [Compound 966], for which the “E. coli ATCC25922 MIC” value is “+ (a “+” indicates that the compound has an MIC value of 16 micrograms/ml or less)”.

In the case of `COC(CN)COc1cccc(-c2cc3cn(-c4ccc(CNCCCNC(=N)N)cc4)c(=O)nc3[nH]2)c1` (centres unmarked) [Compound 1400], the “E. coli ATCC25922 MIC” value is listed as “+ (a “+” indicates that the compound has an MIC value of 16 micrograms/ml or less)”.

As for `CC(=O)NCCN1CCCC(c2cc3cn(-c4ccc(CNCCCNC(=N)N)cc4)c(=O)nc3[nH]2)C1` (centres unmarked) [Compound 2018a], the MIC was less than 16 µg/mL.

`CS(=O)(=O)N1CCN(C(=O)c2ccc(-c3cn4cc(-c5ccc(CNCCCNC(=N)N)cc5)c(=O)nc4[nH]3)cc2)CC1` [Compound 716]: the MIC is greater than 16 µg/mL.

Turning to `N=C(N)NCCCNCc1ccc(-n2cc3cc(-c4ccc(S(=O)(=O)NC5CNC5)cc4)[nH]c3nc2=O)cc1` [Compound 1122], the “E. coli ATCC25922 MIC” value is “+ (a “+” indicates that the compound has an MIC value of 16 micrograms/ml or less)”.

As to `NCCCN(CCCN)Cc1ccc(-n2cc3cc(-c4ccc(CO)cc4)[nH]c3nc2=O)cc1` [Compound 179], the MIC was greater than 16 µg/mL.

Regarding `NC(N)=NCCC(=O)NCc1ccc(-n2cc3cc(-c4ccc(S(=O)(=O)N(CCCc5cccnc5)C5CCNCC5)cc4)[nH]c3nc2=O)cc1` [Compound 1190], the “E. coli ATCC25922 MIC” value was “− (a “−” indicates that the compound has an MIC value greater than 16 micrograms/ml)”.

Regarding `CS(=O)(=O)N1CCN(C(=O)c2ccc(-c3cn4cc(-c5ccc(CNCCCN)cc5)c(=O)nc4[nH]3)cc2)CC1` [Compound 701], the MIC is greater than 16 µg/mL.

As for `N=C(N)NCCCNCCCCCn1cc2cc(-c3ccc(S(=O)(=O)NC4CCNCC4)cc3)[nH]c2nc1=O` [Compound 924], the “E. coli ATCC25922 MIC” value was “+ (a “+” indicates that the compound has an MIC value of 16 micrograms/ml or less)”.

Turning to `N=C(N)NCCCNCc1ccc(-c2cn3cc(-c4ccc(C(=O)N5C6CCC5CC(=O)C6)cc4)[nH]c3nc2=O)cc1` [Compound 703], the MIC is greater than 16 µg/mL.

As for `N=C(N)NOCCNC(=O)c1ccc(-n2cc3cc(-c4ccc(S(=O)(=O)NC5CCNCC5)cc4)[nH]c3nc2=O)cc1` [Compound 1137], the “E. coli ATCC25922 MIC” value is given as “− (a “−” indicates that the compound has an MIC value greater than 16 micrograms/ml)”.

Turning to `N=C(N)NCCCNCc1ccc(-n2cc3cc(-c4cc(OC(F)(F)F)cc([S+]([O-])CCCN)c4)[nH]c3nc2=O)cc1` (centres unmarked) [Compound 2076a], the “E. coli ATCC25922 MIC” value is recorded as “+ (a “+” indicates that the compound has an MIC value of 16 micrograms/ml or less)”.

Take `NCCCNCc1ccc(-c2cn3cc(-c4ccc(C(=O)NN5CCOCC5)cc4)[nH]c3nc2=O)cc1` [Compound 723]: the MIC is greater than 16 µg/mL.

Consider `N=C(N)NCCCNCc1ccc(-n2cc3cc(-c4cc(CCNC(N)=O)cc(OCC(F)CN)c4)[nH]c3nc2=O)cc1` (centres unmarked) [Compound 2012a], for which the “E. coli ATCC25922 MIC” value is “− (a “−” indicates that the compound has an MIC value greater than 16 micrograms/ml)”.

The record behind these values is US9193731B2, “Antimicrobial compounds and methods of making and using the same” (Melinta Therapeutics, Inc., priority 2009, dated 2015).
